According to patent publication US20170095578A1, “CT SCANS USING GADOLINIUM-BASED CONTRAST AGENT” (UNIVERSITY OF MASSACHUSETTS MEDICAL SCHOOL, priority 2014, published 2017):

How the values were obtained:
[1] = gadoxetate disodium-enhanced MRI of the same patient; assay type: in vivo, human; settings: MRI 20 minutes following intravenous administration
Method: (§1) A patient was undergoing evaluation for living liver donation.
FIG. 7B is a gadoxetate disodium-enhanced MRI image of the same patient. […] The MRI of FIG. 7B was obtained 20 minutes following intravenous administration of gadoxetate disodium.

[2] = gadoxetate disodium-enhanced CT scan of a human patient; assay type: in vivo
Method: as §1
FIG. 7A is an enhanced CT scan image of their liver using gadoxetate disodium as a contract agent according to principles of the invention. […] In this particular patient the CT scan was obtained 99 minutes after the gadoxetate disodium-enhanced MRI shown in FIG. 7B, a relatively long interval to image gallbladder filling. A better contrast resolution is expected when using shorter interval. The highest concentration of contrast within the gallbladder, and therefore the best contrast resolution, is expected between 30 to 60 minutes from the time of intravenous injection of contrast.
The CT scan technique used included a slice thickness of 4.00 mm, and a field of view of 283.0 mm. The x-ray radiation was generated using 120 kV and a current of 182 mA, with a tube current of 182 mA and tube current-time product of 213 mAs.

With `CCOc1ccc(CC(CN(CCN(CC(=O)[O-])CC(=O)[O-])CC(=O)[O-])N(CC(=O)[O-])CC(=O)[O-])cc1.[Gd+3].[Na+].[Na+]` (stereo not drawn) [gadoxetate disodium, Gadoxetate disodium] the “visualization of excreted contrast in the gallbladder on MRI” value [1] was “excreted contrast within the gallbladder lumen”, the “gallbladder opacification under CT imaging conditions” value ([2]; following intravenous injection) was “clearly demonstrates gallbladder opacification” and the “visualization of excreted hepatobiliary contrast in the gallbladder on CT” value ([2]; patient, arterial phase CT at 120 kV, 182 mA, 99 minutes after the gadoxetate disodium-enhanced MRI) was “anti-dependant hyperdensity within the gallbladder fundus”.
